In series [1] the test system is HeLa R19 cells. Briefly: Toxicity (MTT) in HeLa R19 cells (Rhinovirus section).
Series [2] can be described thus: Cytotoxicity by neutral red dye uptake in HBV assay cultures. The following applies: human, confluent 2.2.15 cells (HBV-replicating), nine daily doses. The class given is cell-based. The procedure: (§1) HBV antiviral assays were conducted as previous described [Korba and Gerin, Antiviral Res. 19:55 (1992 Confluent cultures of 2.2.15 cells were maintained on 96-well flat-bottomed tissue culture plates (confluence in this culture system is required for active, high levels of HBV replication equivalent to that observed in chronically-infected individuals [Sells et al. J. Virol. 62, 2836-2844 (1988); Korba and Gerin (1992)]. Cultures were treated with nine consecutive daily doses of the test compounds. HBV DNA levels were assessed by quantitative blot hybridization 24 hr. after the last treatment. Cytotoxicity was assessed by uptake of neutral red dye 24 hr. following the last treatment.
(§2) EC50, EC90 and CC50 values (±standard deviations [S.D.]) were calculated by linear regression analysis using data combined from all treated cultures (Korba and Gerin, 1992; Okuse et al., 2005). EC50 and EC90 are drug concentrations at which a 2-fold, or a 10-fold depression of intracellular HBV DNA or HCV RNA (relative to the average levels in untreated cultures), respectively, was observed. CC50 is the drug concentration at which a 2-fold lower level of neutral red dye uptake (relative to the average levels in untreated cultures) was observed. Selectivity index (S.I.) was calculated as CC50/EC90 for HBV assays and CC50/EC50 for HCV assays. EC90 values were used for calculation of the S.I. in HBV assays since at least a 3-fold depression of HBV DNA levels is typically required to achieve statistical significance in this assay system (Korba and Gerin, 1992). For combination treatments, EC50, EC90, CC50 and S.I. are presented for the first compound listed. The molar ratio of the compounds in each combination is also indicated.

The nature of series [3]: Cytotoxicity by neutral red dye uptake in HCV replicon cells. The class given is cell-based. The following applies: human, HCV replicon cell line AVAS (sub-genomic CONI), HCV replicon cells genotype 1B. How it is done:
(§3) Antiviral activity of test compounds was assessed in a 3-day assay using the stably-expressing HCV replicon cell line, AVAS (sub-genomic CONI, genotype 1b) [Blight et al., Science 290, 1972-1974 (2000)] maintained as sub-confluent cultures on 96-well plates as previously described (Okuse et al., Antiviral Research 65, 23-34 (2005)]. Antiviral activity was determined by blot hybridization analysis of intracellular HCV RNA (normalized to the level of cellular B-actin RNA in each culture sample) and cytotoxicity was assessed by neutral red dye uptake after 3 days of treatment. Additional studies were performed using Huh7 cells containing another HCV replicon, H/FL-Neo, a genotype 1a full length construct [Blight et al., J. Virol. 77, 3181-3190 (2003)]. For studies involving human serum, standard culture medium (which contains 10% fetal bovine serum) and assay conditions were maintained.
as §2
On the technique in general: Replicon systems follow genome replication, usually without infectious particles.

Another series relates to Hep-2 cells. The following applies: human.
For the next series, the system named is HBV. As to the kind of experiment: HBV extracellular virion antiviral assay in 2.2.15 cells. The class given is cell-based. Particulars: Hepatitis B virus, extracellular virion HBV DNA, nine daily doses. How it is done: as §1
as §2, with “EC50 and EC90 are drug concentrations at which a 2-fold, or a 10-fold depression of intracellular HBV DNA or HCV RNA (relative to the average levels in untreated cultures), respectively, was observed.” left out

Series [4] relates to HCV replicon cell line, AVAS (sub-genomic CONI, genotype 1b). Briefly: Primary HCV replicon cell assay, genotype 1B. The class given is cell-based. Particulars: Hepatitis C virus, 72 h. How it is done: as §3, §2
Series [5] concerns HeLa R19 cells. Briefly: Toxicity (MTT) in HeLa R19 cells (Adenovirus section).
For another series, the system named is MDCK cells. As to the kind of experiment: Toxicity (MTT) in MDCK cells.
In the next series the test system is 37RC cells. As to the kind of experiment: Toxicity (MTT) in 37RC cells.
The test system of series [6] is MA104 cells. As to the kind of experiment: Toxicity (MTT) in MA104 cells (Rotavirus SA11 section).
Series [7] relates to MA104 cells. As to the kind of experiment: Toxicity (MTT) in MA104 cells (Rotavirus WAG8P1 section).
The test system of the next series is HeLa cells. As to the kind of experiment: Toxicity (MTT) in HeLa cells.
For another series, the system named is A72 cells. Briefly: Toxicity (MTT) in A72 cells.
The test system of series [8] is MA104 cells. Briefly: Toxicity (MTT) in MA104 cells (Rhabdovirus section).

The values below come from patent publication USRE47786E1, “Haloalkyl heteroaryl benzamide compounds” (Romark Laboratories, L.C., priority 2009, dated 2019).

Usually CC50 stands for the concentration that lowers cell viability or growth by half. For orientation: EC50 means the concentration needed to bring the measured effect to its halfway point. As usually defined, the EC90 is the concentration at which the effect reaches the 90% level. The term melting point denotes the temperature of the solid-liquid transition.

In the case of `CC(=O)Oc1ccccc1C(=O)Nc1ncc(C(F)(F)F)s1` [Compound 1], the “Toxicity LD50 (MTT)” value in the series on HeLa R19 cells [1] was more than 50 µg/mL; in the series with Hep-2 cells it was more than 50 µg/mL; with HeLa R19 cells [5] it was 4 µg/mL. The CC50 at 9 days in [2] was more than 100 µM. Besides, the CC50 at 3 days in series [3] was determined as 3.7 µM. Also, the figures for the EC50 (in the series on HBV; in series [4]) were 3.2 to 4 µM and less than 5 µM, respectively. Besides, the EC90 with HBV was more than 4 µM; in [4], more than 5 µM.
With `O=C(Nc1ncc(C(F)(F)F)s1)c1ccccc1O` [Compound 2], the melting point is 260 to 264 °C (dec.). The CC50 at 9 days in series [2] was more than 100 µM. The CC50 at 3 days in series [3] was found to be 0.46 µM. For the same compound, in the series on HBV, the EC50 fell in the range of 3.2 to 4 µM and the EC90 is more than 4 µM. In series [4], the EC50 lay within 0.005 to 0.05 µM and the EC90 was in the range of 0.005 to 0.05 µM.
`CC(=O)Oc1ccccc1C(=O)Nc1nc(C(F)(F)F)cs1` [Compound 3]: the CC50 at 9 days in series [2] was more than 100 µM. In addition, the “Toxicity LD50 (MTT)” value in the series on Hep-2 cells is more than 50 µg/mL. In the series with HBV, the EC50 is more than 4 µM and the EC90 is more than 4 µM.
Regarding `O=C(Nc1nc(C(F)(F)F)cs1)c1ccccc1O` [Compound 4], the CC50 at 9 days in series [2] was more than 100 µM. In addition, the “Toxicity LD50 (MTT)” value with Hep-2 cells was more than 50 µg/mL. In the series on HBV, the EC50 is more than 4 µM and the EC90 is more than 4 µM.
Regarding `CC(=O)Oc1ccccc1C(=O)Nc1nnc(C(F)(F)F)s1` [Compound 5], the CC50 at 9 days in [2] was more than 100 µM. Also, the “Toxicity LD50 (MTT)” value in the series with MDCK cells and in the series with 37RC cells was more than 50 µg/mL each time. For the same compound, in series [3], the CC50 at 3 days turned out to be 15 µM. In addition, the EC50 is more than 4 µM in the series with HBV and less than 5 µM in series [4]. For the same compound, the EC90 in the series with HBV is more than 4 µM; in [4] it was more than 5 µM.
`O=C(Nc1nnc(C(F)(F)F)s1)c1ccccc1O` [Compound 6]: in [2], the CC50 at 9 days is more than 100 µM. The CC50 at 3 days in series [3] was 5.3 µM. Moreover, the “Toxicity LD50 (MTT)” value in the series with Hep-2 cells is more than 50 µg/mL. In the series with HBV, the EC50 is more than 4 µM and the EC90 is more than 4 µM. Besides, in [4], the EC50 was less than 5 µM and the EC90 is more than 5 µM.
On to `CC(=O)Oc1ccccc1C(=O)Nc1ncc([N+](=O)[O-])s1` [Nitazoxanide, reference compound], for which the “Toxicity LD50 (MTT)” value in the series on HeLa R19 cells [1], in the series on MA104 cells [6], in the series on MDCK cells, in the series on Hep-2 cells, with 37RC cells and in the series on MA104 cells [7] was more than 50 µg/mL throughout. For the same compound, the “Toxicity LD50 (MTT)” value with HeLa R19 cells [5] was more than 50 µg/mL. For the same compound, the CC50 at 9 days in series [2] is more than 100 µM. In series [3], the CC50 at 3 days is 32 µM. The EC50 fell in the range of 0.05 to 0.2 µM with HBV and 0.05 to 0.5 µM in series [4]. The EC90 in the series on HBV was in the range of 0.8 to 3.2 µM; in series [4] it was 0.5 to 10 µM.
For the compound `O=C(Nc1ncc([N+](=O)[O-])s1)c1ccccc1O` [Tizoxanide], the “Toxicity LD50 (MTT)” value in the series on HeLa R19 cells [1] is more than 50 µg/mL; in the series on MA104 cells [6], more than 50 µg/mL; in the series with MDCK cells, more than 50 µg/mL; in the series on Hep-2 cells, 50 µg/mL; in the series on HeLa cells, 3 µg/mL; with A72 cells, more than 50 µg/mL. For the same compound, the “Toxicity LD50 (MTT)” value in the series on 37RC cells was more than 50 µg/mL; in the series with MA104 cells [7], more than 50 µg/mL; with HeLa R19 cells [5], 0.8 µg/mL; in the series on MA104 cells [8] it was 50 µg/mL. For the same compound, the CC50 at 9 days in series [2] is more than 100 µM. Besides, the CC50 at 3 days in series [3] came out at 15 µM. Also, the EC50 in the series on HBV was in the range of 0.05 to 0.2 µM; in series [4] it was 0.05 to 0.5 µM. Further, the EC90 was in the range of 0.8 to 3.2 µM with HBV and 0.5 to 10 µM in series [4].
